# From patent US20250248954A1, “PHARMACEUTICAL COMPOSITION FOR PREVENTING OR TREATING DIABETIC STROKE, CONTAINING RAGE ANTAGONIST AND AGE SCAVENGER” (AJOU UNIVERSITY INDUSTRY-ACADEMIC COOPERATION FOUNDATION, priority 2022, published 2025)
# Experiments:
# Type in all cases: in vivo, SD rats
# [1] = test system: experimental animal model of diabetes mellitus (DM) subjected to tMCAO; assay: Diabetic (STZ, 34 days) rat 30-minute tMCAO model: body weight, blood glucose, glycated hemoglobin, brain injury by MRI; conditions: diabetic rats, vs DM-vehicle
# Procedure: (§1) Specifically, these were carried out as follows. To produce an experimental animal model of diabetes mellitus (DM), 7-week-old male SD rats were fasted for 16 hours. Thereafter, streptozotocin (STZ) was administered to the rats, and on day 3, blood glucose levels were measured. The rats were divided into a vehicle group and an aminoguanidine (AG) group, which had similar average blood glucose levels, and were maintained for 34 days. The AG group was orally administered 100 mg/kg of aminoguanidine once a day starting from day 4 after diabetes induction, and was finally administered aminoguanidine within 30 minutes after MCAO. On day 1 after MCAO, the mNSS test shown in FIG. 9 was performed, and then cerebral infarction was checked using an animal MRI system. Next, the rats were sacrificed, and plasma and brain tissue were collected and analyzed. For comparison, protein expression in the brain tissue from normal rats (sham) was used as a control. The impact on diabetes was evaluated by checking changes in body weight and blood glucose levels once a week after diabetes induction and checking final glycated hemoglobin levels after MCAO. To evaluate brain injury, the volume of cerebral infarction was determined using an animal MRI system.
# MGH1 = MGH1 expression in brain tissue of diabetic tMCAO groups by immunohistochemical staining and Western blot; conditions: diabetic rats, day 1 after MCAO; 100 mg/kg orally once a day from day 4; vs vehicle group; FIG. 8
# Procedure: as §1, with “control.” for “control. The impact on diabetes was evaluated by checking changes in body weight and blood glucose levels once a week after diabetes induction and checking final glycated hemoglobin levels after MCAO. To evaluate brain injury, the volume of cerebral infarction was determined using an animal MRI system.”
# Day 1 after MCAO, the expression levels of MGH1 in the brain tissues from the diabetic groups were analyzed by immunohistochemical staining and Western blot analysis.
# [2] = test system: ZO-1, occludin, claudin, Tie-2, VEGF, Ang-1, MMP-2, MMP-9; assay: Real-time PCR of vascular-related factors in brain tissue after tMCAO; conditions: 10 mg/kg i.p., FIG. 5
# Procedure: Specifically, these were carried out as follows. To produce an experimental animal model, 7-week-old male SD rats were fasted for 16 hours. Thereafter, streptozotocin (STZ) was administered to the rats, and after 3 days, fasting blood glucose levels were measured in the tail vein, and only animals with a blood glucose level of 300 mg/dl or more were used as a hyperglycemic model. A cerebral ischemia model was produced by subjecting the produced hyperglycemic model or a normoglycemic model to temporary middle cerebral artery occlusion (tMCAO). For MCAO, a coated suture was inserted through the right external carotid artery into the internal carotid artery, and inserted approximately 19 mm up to the middle cerebral artery (MCA). 30 minutes or 2 hours after insertion, the coated suture was removed, and a reperfusion model was used as a cerebral ischemia model. […] The normoglycemic group (NG), after 2 hours of MCAO, was divided into a vehicle group and an FPS-ZM1 group and used in the experiment. The hyperglycemic group (HG), after 30 minutes of MCAO, was divided into a vehicle group and an FPS-ZM1 group and used in the experiment. […] In addition, rats were sacrificed 3 days after MCAO, and plasma and brain tissue were collected and analyzed.
# [3] = test system: hyperglycemic model subjected to temporary middle cerebral artery occlusion (tMCAO); assay: Hyperglycemic (STZ) rat 30-minute tMCAO cerebral ischemia model: body weight, mNSS test, brain injury (cresyl violet); conditions: 30 min MCAO, 10 mg/kg i.p. once a day
# Procedure: (§2) Specifically, these were carried out as follows. To produce an experimental animal model, 7-week-old male SD rats were fasted for 16 hours. Thereafter, streptozotocin (STZ) was administered to the rats, and after 3 days, fasting blood glucose levels were measured in the tail vein, and only animals with a blood glucose level of 300 mg/dl or more were used as a hyperglycemic model. A cerebral ischemia model was produced by subjecting the produced hyperglycemic model or a normoglycemic model to temporary middle cerebral artery occlusion (tMCAO). For MCAO, a coated suture was inserted through the right external carotid artery into the internal carotid artery, and inserted approximately 19 mm up to the middle cerebral artery (MCA). 30 minutes or 2 hours after insertion, the coated suture was removed, and a reperfusion model was used as a cerebral ischemia model. […] The normoglycemic group (NG), after 2 hours of MCAO, was divided into a vehicle group and an FPS-ZM1 group and used in the experiment. The hyperglycemic group (HG), after 30 minutes of MCAO, was divided into a vehicle group and an FPS-ZM1 group and used in the experiment. The FPS-ZM1 group in each of the normoglycemic group and the hyperglycemic group was injected intraperitoneally with 10 mg/kg of FPS-ZM1 within 5 minutes after MCAO reperfusion and injected with FPS-ZM1 once a day. After surgery, the mNSS (modified neurological severity score) test shown in FIG. 9 and weight measurement were conducted at a certain time every day to check body weight changes and neurobehavioral deficits of the experimental animals. In addition, rats were sacrificed 3 days after MCAO, and plasma and brain tissue were collected and analyzed.
# (§3) After performing MCAO, body weight measurement and the mNSS test were performed at the same time every day.
# (§4) To evaluate brain injury, the volume of cerebral infarction was determined by staining the entire brain with cresyl violet at 1-mm intervals.
# [4] = test system: RAGE, AGE, methylglyoxal (MGH1), GFAP; assay: Western blot analysis of protein expression in brain tissue, hyperglycemic tMCAO group; conditions: HG, 30 min MCAO, 10 mg/kg i.p.
# Procedure: as §2, with “analyzed. After all experiments were completed, the protein expression levels of RAGE, AGE, and methylglyoxal (MGH1) in the brain tissue from each experimental group were analyzed by Western blot analysis. For comparison, protein expression in the brain tissue from normal rats (sham) was used as a control.” for “analyzed.”
# [5] = test system: RAGE, AGE, methylglyoxal (MGH1); assay: Western blot analysis of protein expression in brain tissue, normoglycemic tMCAO group; conditions: NG, 2 h MCAO, 10 mg/kg i.p.
# Procedure: as §2, with “analyzed. After all experiments were completed, the protein expression levels of RAGE, AGE, and methylglyoxal (MGH1) in the brain tissue from each experimental group were analyzed by Western blot analysis. For comparison, protein expression in the brain tissue from normal rats (sham) was used as a control.” for “analyzed.”
# [6] = test system: neuronal cell death, astrocytes and microglia, AGE and MGH1 in the cerebral cortex; assay: Cresyl violet and immunohistochemical staining of cerebral cortex, hyperglycemic tMCAO group; conditions: HG, 30 min MCAO; 10 mg/kg i.p.; FIG. 4
# Procedure: Specifically, these were carried out as follows. To produce an experimental animal model, 7-week-old male SD rats were fasted for 16 hours. Thereafter, streptozotocin (STZ) was administered to the rats, and after 3 days, fasting blood glucose levels were measured in the tail vein, and only animals with a blood glucose level of 300 mg/dl or more were used as a hyperglycemic model. A cerebral ischemia model was produced by subjecting the produced hyperglycemic model or a normoglycemic model to temporary middle cerebral artery occlusion (tMCAO). For MCAO, a coated suture was inserted through the right external carotid artery into the internal carotid artery, and inserted approximately 19 mm up to the middle cerebral artery (MCA). 30 minutes or 2 hours after insertion, the coated suture was removed, and a reperfusion model was used as a cerebral ischemia model. Since cerebral infarction was rarely found in normoglycemic animals after 30-minute MCAO, a model subjected to 2 hours of MCAO was used and compared with the hyperglycemic group. The normoglycemic group (NG), after 2 hours of MCAO, was divided into a vehicle group and an FPS-ZM1 group and used in the experiment. The hyperglycemic group (HG), after 30 minutes of MCAO, was divided into a vehicle group and an FPS-ZM1 group and used in the experiment. The FPS-ZM1 group in each of the normoglycemic group and the hyperglycemic group was injected intraperitoneally with 10 mg/kg of FPS-ZM1 within 5 minutes after MCAO reperfusion and injected with FPS-ZM1 once a day. After surgery, the mNSS (modified neurological severity score) test shown in FIG. 9 and weight measurement were conducted at a certain time every day to check body weight changes and neurobehavioral deficits of the experimental animals. In addition, rats were sacrificed 3 days after MCAO, and plasma and brain tissue were collected and analyzed.
# The degree of neuronal cell death in the cerebral cortex from each experimental group was analyzed using cresyl violet staining. In addition, immunohistochemistry was used to analyze the level of activity of astrocytes and microglia and the expression levels of AGE and MGH1 in the cells.
# [7] = test system: neuronal cell death in the cerebral cortex; assay: Cresyl violet staining of cerebral cortex, normoglycemic tMCAO group; conditions: NG, 2 h MCAO; 10 mg/kg i.p.; vs sham group; FIG. 4
# Procedure: Specifically, these were carried out as follows. To produce an experimental animal model, 7-week-old male SD rats were fasted for 16 hours. Thereafter, streptozotocin (STZ) was administered to the rats, and after 3 days, fasting blood glucose levels were measured in the tail vein, and only animals with a blood glucose level of 300 mg/dl or more were used as a hyperglycemic model. A cerebral ischemia model was produced by subjecting the produced hyperglycemic model or a normoglycemic model to temporary middle cerebral artery occlusion (tMCAO). For MCAO, a coated suture was inserted through the right external carotid artery into the internal carotid artery, and inserted approximately 19 mm up to the middle cerebral artery (MCA). 30 minutes or 2 hours after insertion, the coated suture was removed, and a reperfusion model was used as a cerebral ischemia model. Since cerebral infarction was rarely found in normoglycemic animals after 30-minute MCAO, a model subjected to 2 hours of MCAO was used and compared with the hyperglycemic group. […] In addition, rats were sacrificed 3 days after MCAO, and plasma and brain tissue were collected and analyzed.
# The degree of neuronal cell death in the cerebral cortex from each experimental group was analyzed using cresyl violet staining. […]
# [8] = test system: normoglycemic model subjected to temporary middle cerebral artery occlusion (tMCAO); assay: Normoglycemic rat 2-hour tMCAO cerebral ischemia model: body weight, brain injury (cresyl violet); conditions: 2 h MCAO, 10 mg/kg i.p. once a day
# Procedure: as §2, §3, §4
# [9] = HG, 3 days after MCAO, vs HG-vehicle, cresyl violet
# [10] = NG, 3 days after MCAO, vs NG-vehicle
compound,measurement,setting,value
"N=C(N)NN [AG, aminoguanidine]","brain injury (volume of cerebral infarction, animal MRI)","[1]; 30 min MCAO on day 34, 100 mg/kg orally once a day from day 4, day 1 after MCAO",no significant difference
same,glycated hemoglobin level,"[1]; 100 mg/kg orally once a day from day 4, after MCAO",no significant difference
same,blood glucose level,[1]; 100 mg/kg orally once a day from day 4,no significant difference
same,change in body weight,[1]; 100 mg/kg orally once a day from day 4 after diabetes induction,not significantly different
same,expression level of MGH1 in brain tissue (immunohistochemical staining and Western blot),MGH1,decreased
O=C(c1ccc(Cl)cc1)N(Cc1ccccc1)C1CCCCC1 [FPS-ZM1],expression level of MMP-9 in brain tissue (real-time PCR),"[2]; HG, 30 min MCAO, vs HG-vehicle",significantly decreased in the HG-FPS-ZM1 group to a level similar to that in the sham group
same,expression levels of most vascular-related factors in brain tissue (real-time PCR),[2]; HG-FPS-ZM1 group compared to NG-FPS-ZM1 group,"increased in the HG-FPS-ZM1 group compared to the NG-FPS-ZM1 group, but there was no significant difference between the groups"
same,cross-sectional area of injury,[3]; [9],significantly decreased
same,volume of actual injury,[3]; [9],more significant in the HG-FPS-ZM1 group than in the HG-vehicle group
same,mNSS score,"[3]; HG, vs the other MCAO groups, FIG. 1C",significantly lower than those in the other groups
same,body weight change after MCAO,"[3]; hyperglycemic group (HG), vs initial body weight before MCAO, FIG. 1B",no reduction in body weight
same,MGH1 protein expression level in brain tissue (Western blot),"[4]; between all groups, FIG. 3",no significant difference
same,AGE expression level in brain tissue (Western blot),[4]; vs HG-vehicle,significantly lower
same,GFAP expression level in brain tissue (Western blot),[4]; vs HG-vehicle,significantly lower
same,MGH1 protein expression level in brain tissue (Western blot),"[5]; between all groups, FIG. 3",no significant difference
same,AGE expression level in brain tissue (Western blot),[5]; vs NG-vehicle,no significant difference
same,RAGE expression level in brain tissue (Western blot),[5]; vs NG-vehicle,no significant difference
same,activated astrocytes (GFAP staining),[6],less observed
same,intracellular AGE staining,[6],less observed
same,intracellular MGH1 staining,[6],less observed
same,neuronal cell death / number of live cells in cerebral cortex (cresyl violet staining),[6],the number of live cells was larger
same,degree of neuronal cell death in cerebral cortex (cresyl violet staining),[7],higher
same,cross-sectional area of injury,[8]; [10],difficult through the area photographs to confirm the degree of reduction
same,overall injury volume,[8]; [10],"decreased slightly in the NG-FPS-ZM1 group, but this decrease was not significant"
same,body weight change after MCAO,"[8]; normoglycemic group (NG), vs initial body weight before MCAO, FIG. 1B",decreased compared to the initial body weight
